Experimental data: BindingDB's records for patent US11691969 (Ribon Therapeutics, 2023)

Target: T1, Protein mono-ADP-ribosyltransferase TIPARP (Homo sapiens, UniProt Q7Z3E1)
T1 sequence (Q7Z3E1 whole entry): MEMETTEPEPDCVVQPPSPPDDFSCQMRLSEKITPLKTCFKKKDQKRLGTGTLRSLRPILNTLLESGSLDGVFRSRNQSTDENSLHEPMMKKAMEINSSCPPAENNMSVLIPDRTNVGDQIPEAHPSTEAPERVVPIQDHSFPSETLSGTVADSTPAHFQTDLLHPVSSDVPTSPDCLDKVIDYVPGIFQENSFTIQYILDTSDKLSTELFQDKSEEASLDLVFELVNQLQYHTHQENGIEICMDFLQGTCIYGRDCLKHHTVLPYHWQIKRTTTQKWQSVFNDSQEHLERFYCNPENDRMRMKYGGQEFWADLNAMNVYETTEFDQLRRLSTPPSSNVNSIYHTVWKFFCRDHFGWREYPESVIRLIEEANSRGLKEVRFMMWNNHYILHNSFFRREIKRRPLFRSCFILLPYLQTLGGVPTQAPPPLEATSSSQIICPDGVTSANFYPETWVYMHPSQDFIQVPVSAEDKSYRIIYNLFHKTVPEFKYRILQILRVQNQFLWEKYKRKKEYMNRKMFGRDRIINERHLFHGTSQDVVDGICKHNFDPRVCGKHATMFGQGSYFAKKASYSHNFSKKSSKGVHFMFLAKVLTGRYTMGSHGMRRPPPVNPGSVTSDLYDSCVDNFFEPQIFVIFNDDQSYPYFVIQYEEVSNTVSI
Test: Enzymatic Assay
Description: Displacement of Probe A, a biotinylated probe binding to the TIPARP active site, was measured using a time-resolved fluorescence energy transfer (TR-FRET) assay. 20 nL of a dose response curve of each test compound was spotted in black 384-well polystyrene proxiplates (Perkin Elmer) using a Mosquito (TTP Labtech). Reactions were performed in a 8 μl volume by adding 6 μL of TIPARP and Probe A in assay buffer (20 mM HEPES pH=8, 100 mM NaCl, 0.1% bovine serum albumin, 2 mM DTT and 0.002% Tween20), incubating with test compound at 25° C. for 30 min, then adding 2 μL of ULight-anti 6×His and LANCE Eu-W1024 labeled streptavidin (Perkin Elmer). The final concentrations of TIPARP and Probe A were 6 nM and 2 nM, respectively. The final concentration of ULight-anti 6×His and LANCE Eu-W1024 labeled streptavidin were 4 nM and 0.25 nM, respectively. Reactions were incubated at 25° C. for an additional 30 min, then read on an Envision platereader equipped with a LANCE/DELFIA top mirror (Perkin Elmer) using excitation of 320 nm and emission of 615 nm and […] with a […]. The ratio of the 665/615 nm emission were calculated for each well to determine the amount of complex of TIPARP and Probe Ain each well. […]

IC50: in the range around 0.55 µM
SMILES: C[C@@H](CO[C@H]1CCN(C2CCN(c3ncc(C(F)(F)F)cn3)CC2)C1=O)Nc1cn[nH]c(=O)c1Br [US11691969, Example 23]
